In ChEMBL document CHEMBL1158289, “Bioactive amides from Glycosmis species” (J Nat Prod, 1996) one finds EC50 and LC50 data, which are given here for seven compounds.

In brackets after ≈: the same amount, converted by molar mass.

In the first series the test system is Cladosporium herbarum. As to the kind of experiment: Antifungal activity against Cladosporium herbarum assessed as inhibition of spore germination after 36 hrs by germtube inhibition test. Type of series: functional. Particulars: read-out: ED50 (the source's name).
Take `CSC(=O)N(C)C(=O)Cc1ccccc1` [RITIGALIN]: the EC50 is 156 µg/mL (≈ 699 µM).
The same measure, in the same setting: the same measure for `CNC(=O)/C=C/SC` [PENANGIN]: greater than 200 µg/mL.
Consider `CS/C=C/C(=O)N(C)CCc1ccccc1`, for which the EC50 was determined as 17.6 µg/mL (≈ 74.8 µM).
Consider `CS/C=C/C(=O)N(C)/C=C/c1ccccc1` [METHYLILLUKUMBIN A], for which the EC50 is 5.5 µg/mL (≈ 23.6 µM).
In the case of `CSC(=O)N(C)/C=C\c1ccccc1` [DEHYDRONIRANIN B], the EC50 is 8.4 µg/mL (≈ 40.5 µM).
As for `CSC(=O)N(C)/C=C/c1ccccc1` [DEHYDRONIRANIN A], the EC50 amounted to 100 µg/mL (≈ 482 µM).
For `CSC(=O)N(C)CCc1ccccc1` [NIRANIN], the EC50 amounted to 28 µg/mL (≈ 134 µM).

A further series has as its system Spodoptera littoralis. As to the kind of experiment: Contact toxicity in Spodoptera littoralis neonatal larvae assessed as mortality after 48 hrs. Type of series: organism-based. Particulars: in vivo.
As for `CSC(=O)N(C)C(=O)Cc1ccccc1` [RITIGALIN], the LC50 amounted to 0.05 umol/dm'2.
For the compound `CNC(=O)/C=C/SC` [PENANGIN], the LC50 is 2.84 umol/dm'2.
Turning to `CS/C=C/C(=O)N(C)CCc1ccccc1`, the LC50 is on record as 0.03 umol/dm'2.
Take `CS/C=C/C(=O)N(C)/C=C/c1ccccc1` [METHYLILLUKUMBIN A]: the LC50 is listed as greater than 6.5 umol/dm'2.
Same read-out and setting: then `CSC(=O)N(C)/C=C\c1ccccc1` [DEHYDRONIRANIN B], with 0.02 umol/dm'2; and `CSC(=O)N(C)/C=C/c1ccccc1` [DEHYDRONIRANIN A], with 0.18 umol/dm'2.
As to `CSC(=O)N(C)CCc1ccccc1` [NIRANIN], the LC50 was 0.03 umol/dm'2.

In the next series the test system is Spodoptera littoralis. As to the kind of experiment: Toxicity in Spodoptera littoralis neonatal larvae assessed as growth inhibition after 5 days. The format is organism-based.
Details: not given
With `CSC(=O)N(C)C(=O)Cc1ccccc1` [RITIGALIN], the EC50 is 0.43 µmol/g.
The same measure, in the same setting: then `CNC(=O)/C=C/SC` [PENANGIN], with 0.84 µmol/g.
For the compound `CS/C=C/C(=O)N(C)CCc1ccccc1`, the EC50 was found to be 0.47 µmol/g.
On the same count and under the same terms, then `CS/C=C/C(=O)N(C)/C=C/c1ccccc1` [METHYLILLUKUMBIN A], with 0.94 µmol/g; and `CSC(=O)N(C)/C=C\c1ccccc1` [DEHYDRONIRANIN B], with 0.37 µmol/g.
Still for that read-out and setting: the same measure for `CSC(=O)N(C)/C=C/c1ccccc1` [DEHYDRONIRANIN A]: 0.41 µmol/g; for `CSC(=O)N(C)CCc1ccccc1` [NIRANIN]: 0.25 µmol/g.

The next series relates to Spodoptera littoralis. In words: Toxicity in Spodoptera littoralis neonatal larvae assessed as survival rate after 5 days. Type of series: organism-based. The settings on record: in vivo, 120 h.
On to `CSC(=O)N(C)C(=O)Cc1ccccc1` [RITIGALIN], for which the LC50 is 1.34 µmol/g.
As for `CNC(=O)/C=C/SC` [PENANGIN], the LC50 is greater than 10 µmol/g.
Take `CS/C=C/C(=O)N(C)CCc1ccccc1`: the LC50 stood at 4.24 µmol/g.
`CS/C=C/C(=O)N(C)/C=C/c1ccccc1` [METHYLILLUKUMBIN A]: the LC50 is greater than 5 µmol/g.
The same measure, in the same setting: then `CSC(=O)N(C)/C=C\c1ccccc1` [DEHYDRONIRANIN B], with 0.96 µmol/g; and `CSC(=O)N(C)/C=C/c1ccccc1` [DEHYDRONIRANIN A], with 1.64 µmol/g; and `CSC(=O)N(C)CCc1ccccc1` [NIRANIN], with 0.81 µmol/g.
